Like-named read-outs stand apart in the source and are kept apart here.
Experiments:
[1] = amide bond, 13-membered ring, CDMT/NMM, DMF
[2] = target: T1, CFTR (F508del/MF-HBE cells) (Homo sapiens, UniProt P13569, DEL508-508); assay: Ussing chamber assay of CFTR-mediated short-circuit currents, Assay A (0.1 μM to 25 μM, 6 concentrations); type: cell-based; conditions: with 33 nM potentiator and 18 μM Tezacaftor, 20% human serum; for Emax: 18-24 hours, read-out: A Max activity (%)
T1 construct: human bronchial epithelial (HBE) cells derived from CF subjects heterozygous for F508del and a minimal function CFTR mutation (F508del/MF-HBE); endogenous in cells; host or cells: Primary human bronchial epithelial cells from CF subjects (F508del/MF genotype), differentiated at an air-liquid interface
T1 sequence (P13569 with tags, fused parts or gaps DEL508-508): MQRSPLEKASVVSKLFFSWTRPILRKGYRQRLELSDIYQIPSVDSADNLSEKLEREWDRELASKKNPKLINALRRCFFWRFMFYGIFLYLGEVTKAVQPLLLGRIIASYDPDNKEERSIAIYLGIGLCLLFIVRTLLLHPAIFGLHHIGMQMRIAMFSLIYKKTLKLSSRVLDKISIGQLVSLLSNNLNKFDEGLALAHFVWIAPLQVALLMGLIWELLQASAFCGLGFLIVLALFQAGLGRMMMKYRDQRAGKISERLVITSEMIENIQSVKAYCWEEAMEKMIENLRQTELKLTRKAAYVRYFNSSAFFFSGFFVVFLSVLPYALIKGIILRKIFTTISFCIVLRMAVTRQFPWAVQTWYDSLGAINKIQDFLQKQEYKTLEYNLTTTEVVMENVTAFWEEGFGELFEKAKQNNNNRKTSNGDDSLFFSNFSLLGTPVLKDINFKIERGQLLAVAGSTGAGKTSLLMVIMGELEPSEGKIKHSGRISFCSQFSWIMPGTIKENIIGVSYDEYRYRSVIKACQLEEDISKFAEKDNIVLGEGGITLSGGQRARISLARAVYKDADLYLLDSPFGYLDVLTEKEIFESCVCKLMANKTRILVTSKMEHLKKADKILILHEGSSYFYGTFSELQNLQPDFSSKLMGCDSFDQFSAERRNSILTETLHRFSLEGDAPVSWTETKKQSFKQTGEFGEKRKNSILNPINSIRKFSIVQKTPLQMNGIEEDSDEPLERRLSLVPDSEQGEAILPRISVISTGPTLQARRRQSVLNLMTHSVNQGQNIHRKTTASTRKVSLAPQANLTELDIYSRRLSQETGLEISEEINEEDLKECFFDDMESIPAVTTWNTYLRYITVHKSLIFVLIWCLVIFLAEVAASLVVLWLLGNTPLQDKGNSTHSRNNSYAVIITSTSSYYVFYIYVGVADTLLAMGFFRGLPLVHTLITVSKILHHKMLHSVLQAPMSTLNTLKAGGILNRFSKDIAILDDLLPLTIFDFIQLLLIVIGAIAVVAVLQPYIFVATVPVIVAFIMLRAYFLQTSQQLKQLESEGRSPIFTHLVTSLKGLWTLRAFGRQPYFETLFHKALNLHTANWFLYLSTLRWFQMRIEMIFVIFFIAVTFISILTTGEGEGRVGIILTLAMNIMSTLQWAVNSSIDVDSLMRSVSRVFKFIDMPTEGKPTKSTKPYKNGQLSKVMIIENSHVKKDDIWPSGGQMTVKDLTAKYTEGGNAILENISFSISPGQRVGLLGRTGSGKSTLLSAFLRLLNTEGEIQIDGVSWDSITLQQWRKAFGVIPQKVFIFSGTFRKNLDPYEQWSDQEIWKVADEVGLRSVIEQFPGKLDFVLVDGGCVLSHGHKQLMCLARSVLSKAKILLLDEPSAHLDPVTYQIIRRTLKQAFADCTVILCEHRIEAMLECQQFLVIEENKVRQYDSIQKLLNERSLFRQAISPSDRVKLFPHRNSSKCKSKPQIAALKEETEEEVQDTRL
In short: (§1)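 Short-circuit current was recorded at 37 °C under voltage clamp (0 mV) with amiloride 30 μM apically, forskolin 20 μM activation, then BPO/GlyH-101/inh-172 (20 μM each) to isolate CFTR current. Before recording, corrector exposure lasted 18–24 h with 18 μM tezacaftor, 20% human serum, and 33 nM (dose–response) or 44 nM (1 μM fixed) potentiator, maintained throughout.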

[3] = target: T1, CFTR (F508del/MF-HBE cells); assay: Ussing chamber assay of CFTR-mediated short-circuit currents, Assay D (single concentration of 1 μM); type: cell-based; conditions: with 44 nM potentiator and 18 μM Tezacaftor, 18-24 hours, 20% human serum
In short: as §1

[4] = target: T1, CFTR (F508del/MF-HBE cells); assay: Ussing chamber assay of CFTR-mediated short-circuit currents, Assay B (0.00001 μM to 25 μM, 12 concentrations); type: cell-based; conditions: with 33 nM potentiator and 18 μM Tezacaftor, 20% human serum; for Emax: 18-24 hours, read-out: B Max activity (%)
In short: as §1

[5] = target: T1, CFTR (F508del/MF-HBE cells); assay: Ussing chamber assay of CFTR-mediated short-circuit currents, Assay C (0.026 μM to 25 μM, 6 concentrations); type: cell-based; conditions: with 33 nM potentiator and 18 μM Tezacaftor, 20% human serum
In short: as §1

SMILES	Emax [2] [%]	EC50 [2] [nM]	Emax [4] [%]	EC50 [4] [nM]	also measured
Cc1cccc(C)c1-c1cc2nc(n1)NS(=O)(=O)c1cccc(c1)C(=O)N(Cc1cnc3oc(C4CC4)cc3n1)C(CC1CC(C)(C)C1)CO2 (stereo not drawn)					ring closure, isolated yield (from Cc1cccc(C)c1-c1cc(OCC(CC2CC(C)(C)C2)NCc2cnc3oc(C4CC4)cc3n2)nc(NS(=O)(=O)c2cccc(C(=O)O)c2)n1, amide bond, 13-membered ring, CDMT/NMM, DMF, 15.9 mM, 25.0 h): 75%
Cc1cccc(C)c1-c1cc2nc(n1)NS(=N)(=O)c1cccc(c1)C(=O)N(Cc1cnc3oc(C4CC4)cc3n1)[C@H](CC(C)(C)C)CO2 (stereo partly drawn)					ring closure, isolated yield (from 3-[[[4-[(2R)-2-[(6-Cyclopropylfuro[2,3-b]pyrazin-2-yl)methylamino]-4,4-dimethyl-pentoxy]-6-(2,6-dimethylphenyl)pyrimidin-2-yl]amino]sulfonimidoyl]benzoic acid (hydrochloride salt) (isomer B), amide bond, 13-membered ring, CDMT/NMM, DMF, 10.4 mM): 8%
Cc1cccc(C)c1-c1cc2nc(n1)NS(=O)(=O)c1cccc(c1)C(=O)N(Cc1cncc(Cl)n1)[C@H](CCC(C)(C)C)CO2					ring closure, isolated yield (from Cc1cccc(C)c1-c1cc(OC[C@@H](CCC(C)(C)C)NCc2cncc(Cl)n2)nc(NS(=O)(=O)c2cccc(C(=O)O)c2)n1, amide bond, 13-membered ring, CDMT/NMM, DMF, 15.0 mM, 18.0 h): 48%
CC1(C)CCC=CC[C@](OCc2ccccc2)(C(F)(F)F)C2=NN=C(O2)c2nc(c(C(F)(F)F)cc2[N+](=O)[O-])N1 (mixture of isomers)					ring closure, isolated yield (from C=CCCC(C)(C)Nc1nc(-c2nnc([C@@](CC=C)(OCc3ccccc3)C(F)(F)F)o2)c([N+](=O)[O-])cc1C(F)(F)F, rcm bond, 14-membered ring, Zhan catalyst-1B (20 mol%), DCE, 9.26 mM, 72.0 °C, 2.47 h): 40%
Cc1cccc(C)c1-c1cc2nc(n1)NS(=O)(=O)c1cccc(c1)C(=O)N(Cc1cnc3oc(C4CC4)cc3n1)C(C1(C(C)C)CC1)CO2 (stereo not drawn)					ring closure, isolated yield (from Cc1cccc(C)c1-c1cc(OCC(NCc2cnc3oc(C4CC4)cc3n2)C2(C(C)C)CC2)nc(NS(=O)(=O)c2cccc(C(=O)O)c2)n1, amide bond, 13-membered ring, CDMT/NMM, DMF, 25.0 °C): 41%

More lines, main results first:

Emax [2] [%]	EC50 [2] [nM]	Emax [4] [%]	EC50 [4] [nM]	SMILES	also measured
> 60	< 1000	> 60	< 1000	Cc1cccc(C)c1-c1cc2nc(n1)NS(=O)(=O)c1cccc(c1)C(=O)N(Cc1cnc3oc(C(C)(C)C)cc3n1)[C@H](CC13CC(C1)C3)CO2 [Compound I-99, (11R)-11-(1-bicyclo[1.1.1]pentanylmethyl)-12-[(6-tert-butylfuro[2,3-b]pyrazin-2-yl)methyl]-6-(2,6-dimethylphenyl)-2,2-dioxo-9-oxa-2λ^6-thia-3,5,12,19-tetrazatricyclo[12.3.1.14,8]nonadeca-1(18),4(19),5,7,14,16-hexaen-13-one]	ring closure, yield after HPLC ([1]; from Cc1cccc(C)c1-c1cc(OC[C@@H](CC23CC(C2)C3)NCc2cnc3oc(C(C)(C)C)cc3n2)nc(NS(=O)(=O)c2cccc(C(=O)O)c2)n1, 29.9 mM, 16.0 h): 54%; D activity at 1 μM (%) [3]: +++ (+++ is >60%)
> 60	< 1000	> 60	1000 to 3000	Cc1cccc(C)c1-c1cc2nc(n1)NS(=O)(=O)c1cccc(c1)C(=O)N(Cc1cnc3oc(C(C)(C)C)cc3n1)[C@H](CC1(C)CC1)CO2 [Compound I-98, (11R)-12-[(6-tert-butylfuro[2,3-b]pyrazin-2-yl)methyl]-6-(2,6-dimethylphenyl)-11-[(1-methylcyclopropyl)methyl]-2,2-dioxo-9-oxa-2λ^6-thia-3,5,12,19-tetrazatricyclo[12.3.1.14,8]nonadeca-1(18),4(19),5,7,14,16-hexaen-13-one]	ring closure, yield after HPLC ([1]; from Cc1cccc(C)c1-c1cc(OC[C@@H](CC2(C)CC2)NCc2cnc3oc(C(C)(C)C)cc3n2)nc(NS(=O)(=O)c2cccc(C(=O)O)c2)n1, 44.5 mM, 16.0 h): 55%
		> 60	< 1000	Cc1cccc(C)c1-c1nc2nc(c1C)OC[C@@H](CC(C)(C)C)N(Cc1cnc3cc(C(C)(C)C)n(C)c3n1)C(=O)c1cccc(c1)S(=O)(=O)N2 [Compound I-188, (11R)-12-[(6-tert-Butyl-5-methyl-pyrrolo[2,3-b]pyrazin-3-yl)methyl]-6-(2,6-dimethylphenyl)-11-(2,2-dimethylpropyl)-7-methyl-2,2-dioxo-9-oxa-2λ^6-thia-3,5,12,19-tetrazatricyclo[12.3.1.14,8]nonadeca-1(18),4(19),5,7,14,16-hexaen-13-one]	ring closure, yield after HPLC ([1]; from Cc1cccc(C)c1-c1nc(NS(=O)(=O)c2cccc(C(=O)O)c2)nc(OC[C@@H](CC(C)(C)C)NCc2cnc3cc(C(C)(C)C)n(C)c3n2)c1C, 19.8 mM, 4.0 h): 57%; Emax ([5]; 18-24 hours, read-out: C Max activity (%)): > 60%; EC50 [5]: < 1000 nM; D activity at 1 μM (%) [3]: +++ (+++ is >60%)
> 60	< 1000	> 60	< 1000	Cc1cccc(C)c1-c1cc2nc(n1)NS(=O)(=O)c1cccc(c1)C(=O)N(Cc1cnc3nc(C(C)C)n(C)c3n1)[C@H](CC13CC(C1)C3)CO2 [Compound I-88, (11R)-11-(1-bicyclo[1.1.1]pentanylmethyl)-6-(2,6-dimethylphenyl)-12-[(2-isopropyl-3-methyl-imidazo[4,5-b]pyrazin-5-yl)methyl]-2,2-dioxo-9-oxa-2λ^6-thia-3,5,12,19-tetrazatricyclo[12.3.1.14,8]nonadeca-1(18),4(19),5,7,14,16-hexaen-13-one]	ring closure, yield after HPLC ([1]; from Cc1cccc(C)c1-c1cc(OC[C@@H](CC23CC(C2)C3)NCc2cnc3nc(C(C)C)n(C)c3n2)nc(NS(=O)(=O)c2cccc(C(=O)O)c2)n1, 11.0 mM, 16.5 h): 66%
> 60	< 1000	> 60	1000 to 3000	Cc1cccc(C)c1-c1cc2nc(n1)NS(=O)(=O)c1cccc(c1)C(=O)N(Cc1cnc3oc(C4CC4)cc3n1)[C@H](CC13CC(C1)C3)CO2 [Compound I-52, (11R)-11-(1-bicyclo[1.1.1]pentanylmethyl)-12-[(6-cyclopropylfuro[2,3-b]pyrazin-2-yl)methyl]-6-(2,6-dimethylphenyl)-2,2-dioxo-9-oxa-2λ^6-thia-3,5,12,19-tetrazatricyclo[12.3.1.14,8]nonadeca-1(18),4(19),5,7,14,16-hexaen-13-one]	ring closure, yield after HPLC ([1]; from Cc1cccc(C)c1-c1cc(OC[C@@H](CC23CC(C2)C3)NCc2cnc3oc(C4CC4)cc3n2)nc(NS(=O)(=O)c2cccc(C(=O)O)c2)n1, 12.4 mM, 18.0 h): 66%
		> 60	< 1000	Cc1cccc(C)c1-c1cc2nc(n1)NS(=O)(=O)c1cccc(c1)C(=O)N(Cc1cnc3oc(C4CCC4)cc3n1)[C@H](CC13CC(C1)C3)CO2 [Compound I-134, (11R)-11-(1-Bicyclo[1.1.1]pentanylmethyl)-12-[(6-cyclobutylfuro[2,3-b]pyrazin-2-yl)methyl]-6-(2,6-dimethylphenyl)-2,2-dioxo-9-oxa-2λ^6-thia-3,5,12,19-tetrazatricyclo[12.3.1.14,8]nonadeca-1(18),4(19),5,7,14,16-hexaen-13-one]	ring closure, yield after HPLC ([1]; from Cc1cccc(C)c1-c1cc(OC[C@@H](CC23CC(C2)C3)NCc2cnc3oc(C4CCC4)cc3n2)nc(NS(=O)(=O)c2cccc(C(=O)O)c2)n1, 28.4 mM, 2.0 h): 91%
> 60	< 1000	> 60	1000 to 3000	Cc1cccc(C)c1-c1cc2nc(n1)NS(=O)(=O)c1cccc(c1)C(=O)N(Cc1cnc3oc(C4(C)CC4)cc3n1)[C@H](CC1(C)CC1)CO2 [Compound I-96, (11R)-6-(2,6-dimethylphenyl)-12-[[6-(1-methylcyclopropyl)furo[2,3-b]pyrazin-2-yl]methyl]-11-[(1-methylcyclopropyl)methyl]-2,2-dioxo-9-oxa-2λ^6-thia-3,5,12,19-tetrazatricyclo[12.3.1.14,8]nonadeca-1(18),4(19),5,7,14,16-hexaen-13-one]	ring closure, yield after HPLC ([1]; from Cc1cccc(C)c1-c1cc(OC[C@@H](CC2(C)CC2)NCc2cnc3oc(C4(C)CC4)cc3n2)nc(NS(=O)(=O)c2cccc(C(=O)O)c2)n1, 50.0 mM, 6.0 h): 63%
> 60	< 1000	> 60	1000 to 3000	Cc1cccc(C)c1-c1cc2nc(n1)NS(=O)(=O)c1cccc(c1)C(=O)N(Cc1cnc3oc(C4CC4)cc3n1)[C@H](COC(C)C)CO2 [Compound I-23, (11R)-12-[(6-cyclopropylfuro[2,3-b]pyrazin-2-yl)methyl]-6-(2,6-dimethylphenyl)-11-(isopropoxymethyl)-2,2-dioxo-9-oxa-2λ^6-thia-3,5,12,19-tetrazatricyclo[12.3.1.14,8]nonadeca-1(18),4(19),5,7,14,16-hexaen-13-one]	ring closure, yield after HPLC ([1]; from Cc1cccc(C)c1-c1cc(OC[C@@H](COC(C)C)NCc2cnc3oc(C4CC4)cc3n2)nc(NS(=O)(=O)c2cccc(C(=O)O)c2)n1, 40.6 mM, 14.0 h): 52%

— US20250340574A1, “MODULATORS OF CYSTIC FIBROSIS TRANSMEMBRANE CONDUCTANCE REGULATOR” (Vertex Pharmaceuticals Incorporated, priority 2022, published 2025)
